From patent US20020002124A1, “Antimicrobial cleansing compositions” (priority 2000, published 2002)

Assay: Mildness to the skin (drying, stinging) on topical use
Assay type: in vivo
Conditions: as proton donating agent in the compositions

O=C1CCC(C(=O)O)N1 (stereo not shown) [2-pyrrolidone-5 carboxylic acid]
mildness to the skin and stinging compared with other acids suitable for topical application: milder to the skin and causes less stinging than many other acids
